Assay [1] has as its system Rattus norvegicus. Nature of the assay: In vivo antidyslipidemic activity against Triton WR 1339-induced hyperlipidemic Wistar rat model assessed as decrease in total cholesterol level in plasma at 56 umol/kg, ip administered as single dose 1 hr after Triton WR 1339 challenge measured after 24 hrs. In kind it is functional.
In assay [2] the test system is Rattus norvegicus. Nature of the assay: In vivo antidyslipidemic activity against Triton WR 1339-induced hyperlipidemic Wistar rat model assessed as decrease in LDL-cholesterol level in plasma at 56 umol/kg, ip administered as single dose 1 hr after Triton WR 1339 challenge measured after 24 hrs. It counts as functional.
A short description of assay [3]: Antioxidant activity in rat liver microsome membrane assessed as inhibition of lipid peroxidation after 45 mins by TBARS-based spectrophotometric assay. In kind it is functional, microsomes. In general terms: Liver microsomes are vesicles of endoplasmic reticulum, rich in cytochrome P450 enzymes.
Assay [4] concerns Radical scavenging activity. Nature of the assay: Antioxidant activity assessed as DPPH radical scavenging activity after 30 mins. It counts as functional. On the technique in general: The DPPH test is a chemical assay of radical scavenging.
Assay [5] concerns Rattus norvegicus. Nature of the assay: In vivo antidyslipidemic activity against Triton WR 1339-induced hyperlipidemic Wistar rat model assessed as decrease in triglyceride level in plasma at 56 umol/kg, ip administered as single dose 1 hr after Triton WR 1339 challenge measured after 24 hrs. It counts as functional.
Assay [6] concerns the target T1, Prostaglandin G/H synthase 1 (Bos taurus) (UniProt O62664).
T1 sequence (whole entry): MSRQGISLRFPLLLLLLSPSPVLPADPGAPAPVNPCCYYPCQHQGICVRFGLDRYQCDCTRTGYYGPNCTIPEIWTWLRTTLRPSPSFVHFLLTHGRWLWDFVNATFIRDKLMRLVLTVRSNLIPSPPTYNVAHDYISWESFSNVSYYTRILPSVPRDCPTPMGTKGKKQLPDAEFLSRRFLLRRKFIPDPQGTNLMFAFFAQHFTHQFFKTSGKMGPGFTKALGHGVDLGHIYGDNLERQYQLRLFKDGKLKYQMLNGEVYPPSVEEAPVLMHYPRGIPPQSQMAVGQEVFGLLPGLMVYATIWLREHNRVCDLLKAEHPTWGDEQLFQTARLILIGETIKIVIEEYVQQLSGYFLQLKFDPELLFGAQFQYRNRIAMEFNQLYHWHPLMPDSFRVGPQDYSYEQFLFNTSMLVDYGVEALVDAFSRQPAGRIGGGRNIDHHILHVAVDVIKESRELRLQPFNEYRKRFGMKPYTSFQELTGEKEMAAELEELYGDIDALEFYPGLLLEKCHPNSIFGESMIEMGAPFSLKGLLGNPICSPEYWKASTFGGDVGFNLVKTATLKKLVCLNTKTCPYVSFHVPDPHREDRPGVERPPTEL
Briefly: Inhibition of bovine COX-1 assessed as PGF2-alpha formation using arachidonic acid as substrate at 20 uM by enzyme immunoassay.

Assay [7] has as its system Radical scavenging activity. Nature of the assay: Antioxidant activity assessed as DPPH radical scavenging activity up to 50 uM measured within 15 mins. In kind it is functional.
Assay [8] has as its target T2, Squalene synthase (Rattus norvegicus) (UniProt Q02769).
T2 sequence (whole entry): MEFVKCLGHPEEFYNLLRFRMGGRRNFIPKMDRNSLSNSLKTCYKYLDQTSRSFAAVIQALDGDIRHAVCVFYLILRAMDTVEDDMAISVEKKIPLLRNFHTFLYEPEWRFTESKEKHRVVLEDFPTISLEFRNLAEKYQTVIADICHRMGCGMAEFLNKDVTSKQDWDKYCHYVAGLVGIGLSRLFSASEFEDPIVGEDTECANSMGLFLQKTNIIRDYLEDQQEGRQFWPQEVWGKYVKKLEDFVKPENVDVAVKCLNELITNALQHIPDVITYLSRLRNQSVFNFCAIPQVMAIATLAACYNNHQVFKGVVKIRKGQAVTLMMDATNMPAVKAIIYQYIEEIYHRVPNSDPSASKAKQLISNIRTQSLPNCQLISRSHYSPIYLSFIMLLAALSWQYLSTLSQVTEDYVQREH
Briefly: (§1) Inhibition of squalene synthase in rat liver microsomes assessed as decrease in conversion of [3H]FPP to squalene.

In assay [9] the target is T3, Squalene synthase (Rattus norvegicus, UniProt Q02769).
T3 sequence (Q02769 whole entry): T2 sequence (whole entry)
Described as §1.

Assay [10] is filed under the species Homo sapiens. Nature of the assay: Antioxidant activity against CuSO4-induced human LDL oxidation assessed as increase in lag time at 0.50 uM by spectrophotometric analysis. In kind it is functional.
The test system of assay [11] is Glycine max. Nature of the assay: Inhibition of soybean lipoxygenase using sodium linoleate as substrate up to 100 uM measured for 6 mins.
Assay [12] is filed under the species Homo sapiens. Nature of the assay: Antioxidant activity against CuSO4-induced human LDL oxidation assessed as delta-lag time at 0.50 uM by spectrophotometric analysis. It counts as functional.
The species entered for assay [13] is Homo sapiens. Briefly: Antioxidant activity against CuSO4-induced human LDL oxidation assessed as lag time at 0.50 uM by spectrophotometric analysis (reference value: 113 mins). In kind it is functional.
The species entered for assay [14] is Homo sapiens. Nature of the assay: Antioxidant activity against CuSO4-induced human LDL oxidation assessed as inhibition of rate of conjugate diene formation at 0.50 uM by spectrophotometric analysis. In kind it is functional.
For assay [15], the species on record is Homo sapiens. Briefly: Antioxidant activity against CuSO4-induced human LDL oxidation assessed as inhibition of rate of conjugate diene formation at 1 uM by spectrophotometric analysis. In kind it is functional.
Assay [16] is filed under the species Homo sapiens. Nature of the assay: Antioxidant activity against CuSO4-induced human LDL oxidation assessed as increase in lag time at 1 uM by spectrophotometric analysis. In kind it is functional.
The species named for assay [17] is Homo sapiens. Briefly: Antioxidant activity against CuSO4-induced human LDL oxidation assessed as prolongation of lag time by spectrophotometric analysis. In kind it is functional.
The species named for assay [18] is Homo sapiens. Briefly: Antioxidant activity against CuSO4-induced human LDL oxidation assessed as inhibition of rate of conjugate diene formation at 0.25 uM by spectrophotometric analysis. In kind it is functional.
Assay [19] is filed under the species Homo sapiens. Briefly: Antioxidant activity against CuSO4-induced human LDL oxidation assessed as delta-lag time at 0.25 uM by spectrophotometric analysis. In kind it is functional.
Assay [20] is filed under the species Homo sapiens. Briefly: Antioxidant activity against CuSO4-induced human LDL oxidation assessed as increase in lag time at 0.25 uM by spectrophotometric analysis. It counts as functional.
For assay [21], the species on record is Homo sapiens. Nature of the assay: Antioxidant activity against CuSO4-induced human LDL oxidation assessed as lag time at 0.25 uM by spectrophotometric analysis (reference value: 113 mins). In kind it is functional.
Assay [22] has as its system Mus musculus. Briefly: In vivo antiinflammatory activity in mouse assessed as decrease in carrageenan-induced paw edema at 0.30 mmol/kg, ip administered immediately after carrageenan injection measured after 3.5 hrs. It counts as functional. (In the carrageenan paw model, swelling and tenderness develop within hours.)
Assay [23] is described as follows: Inhibition of soybean lipoxygenase using sodium linoleate as substrate measured for 6 mins.

The results in this text go back to ChEMBL document CHEMBL3232866, “Design of novel potent antihyperlipidemic agents with antioxidant/anti-inflammatory properties: exploiting phenothiazine's strong antioxidant activity” (J Med Chem, 2014).

Active and inactive are the calls of the source. The calls are words filed in the database; no cut-off is given here. Bounds are passed on as bounds.

Regarding `CN1CC(O)(c2ccc(-c3ccccc3)cc2)OC2CCCCC21` (configuration not stated), the inhibition in vivo at 56 µmol/kg in [1] stood at 54%; in assay [2], 51%; in assay [5] it was 49%. For the same molecule, the IC50 in [3] is 450 µM; in assay [4], more than 400 µM.

With `CN1CC(O)(c2ccc(-c3ccccc3)cc2)Oc2ccccc21` (configuration not stated), the inhibition in vivo at 56 µmol/kg in [1] is 62%; in [2], 74%; in [5] it was 73%. Also, the IC50 is 9 µM in assay [3] and 119 µM in assay [4]. Moreover, the inhibition in [6] stood at 36%.

On to `CN1CC(O)(c2ccc(-c3ccccc3)cc2)Sc2ccccc21` (configuration not stated), for which the inhibition in vivo at 56 µmol/kg in assay [1] came out at 58%; in assay [2] it was 26%; in [5], 38%. Moreover, the figures for the IC50 in assay [3] and in assay [4] were 83 µM and 271 µM, respectively. In addition, in assay [6], the inhibition turned out to be 90%.

For `CN1CC(O)(c2ccc3c(c2)Nc2ccccc2S3)Oc2ccccc21` (configuration not stated), the outcome in assay [7] was Active. Also, the values for the IC50 in assay [3], in assay [9] and in [4] were 1.6 µM, 3.3 µM and 337 µM, respectively. Further, the inhibition result in assay [8] is “Dose-dependent effect”.

As for `CC1=CSC(O)(c2ccc3c(c2)Nc2ccccc2S3)CN1C=O` (configuration not stated), the result in [7] was Active. The IC50 in assay [3] is 0.33 µM; in assay [9] it was more than 50 µM; in [4], 150 µM.

Turning to `OC1(c2ccc3c(c2)Nc2ccccc2S3)CN2CCCCC2CO1` (racemic), the Activity is 80% in assay [10], 100% in assay [16], “Dose-dependent effect” in assay [17] and 35% in assay [20]. Moreover, the inhibition entry in assay [11] was “inactive”. Also, the inhibition in vivo at 56 µmol/kg in [1] is 36%; in assay [2], 58%; in assay [5], 63%. Besides, the result in assay [7] was Active. The TIME is 1.5 h in assay [12], 3.38 h in assay [13], 0.65 h in assay [19] and 2.53 h in assay [21]. Further, the IC50 stood at 0.55 µM in assay [3], 2.7 µM in assay [9] and 184 µM in [4]. For the same molecule, the inhibition in assay [14] was 20%; in assay [8], “Dose-dependent effect”; in [15], 100%; in [18] it was 0%; in [6], 55%.

On to `CN1CCOC(O)(c2ccc3c(c2)N(C)c2ccccc2S3)C1` (racemic), for which the inhibition result in assay [11] is “inactive”. Also, the results for the IC50 in assay [3], in assay [9] and in assay [4] were 70.2 µM, 3.6 µM and more than 400 µM, respectively. The inhibition entry in [8] was “Dose-dependent effect”; in assay [6], 17%.

On to `CN1c2ccccc2Sc2ccc(C3(O)CN4CCCCC4CO3)cc21` (racemic), for which, in [11], the inhibition result is “inactive”. In addition, the inhibition in vivo at 56 µmol/kg was determined as 55% in assay [1], 26% in assay [2] and 71% in assay [5]. Further, the IC50 in assay [3] is 68 µM; in [9], 2.3 µM; in [4], more than 400 µM. In assay [8], the inhibition entry was “Dose-dependent effect”.

As to `CN1c2ccccc2Sc2ccc(C3(O)CN(C)C4CCCCC4O3)cc21` (racemic), in assay [11], the inhibition entry was “inactive”. The inhibition in vivo at 56 µmol/kg amounted to 26% in assay [1], 34% in assay [2] and 27% in assay [5]. For the same molecule, the IC50 in [3] is 57 µM; in [9] it was 4.7 µM; in assay [4], more than 400 µM. For the same molecule, the inhibition entry in assay [8] is “Dose-dependent effect”.

As for `CC(=O)N1c2ccccc2Sc2ccc(C3(O)CN(C)CCO3)cc21` (racemic), the inhibition entry in [11] is “inactive”. The results for the inhibition in vivo at 56 µmol/kg in [1], in [2] and in assay [5] were 63%, 48% and 76%, respectively. The IC50 in assay [3] was 36 µM; in assay [9] it was 25.3 µM; in assay [4], more than 400 µM. Further, the inhibition result in [8] was “Dose-dependent effect”.

`CC(=O)N1c2ccccc2Sc2ccc(C3(O)CN4CCCCC4CO3)cc21` (racemic): the inhibition result in assay [11] is “inactive”. For the same molecule, the IC50 in assay [3] is 12 µM; in assay [9], 16.4 µM; in assay [4], more than 400 µM. The inhibition entry in [8] is “Dose-dependent effect”.

For `CC(=O)N1c2ccccc2Sc2ccc(C3(O)CN(C)C4CCCCC4O3)cc21` (racemic), the inhibition result in [11] was “inactive”. The IC50 in assay [3] was 14 µM; in [9], 1.6 µM; in [4] it was more than 400 µM. For the same molecule, the inhibition entry in [8] is “Dose-dependent effect”.

For the molecule `COc1ccc2c(c1)c(CC(=O)O)c(C)n2C(=O)c1ccc(Cl)cc1` [INDOMETHACIN], the inhibition in vivo at 300 µmol/kg in [22] turned out to be 54%. In addition, the inhibition in [6] is 100%.

For the molecule `COc1ccc2cc([C@H](C)C(=O)O)ccc2c1` [NAPROXEN], the inhibition in vivo at 300 µmol/kg in assay [22] came out at 51%. Also, the IC50 in [23] amounted to 24 µM. Moreover, the inhibition in assay [6] amounted to 30%.

With `CC(C)(Sc1cc(C(C)(C)C)c(O)c(C(C)(C)C)c1)Sc1cc(C(C)(C)C)c(O)c(C(C)(C)C)c1` [PROBUCOL], the values for the inhibition in vivo at 56 µmol/kg in assay [1], in assay [2] and in assay [5] were 18%, 18% and 11%, respectively. In addition, the values for the IC50 in [3] and in assay [4] were more than 1000 µM and 234 µM, respectively.

For `O=c1c(O)c(-c2ccc(O)c(O)c2)oc2cc(O)cc(O)c12` [QUERCETIN], the IC50 in assay [3] is 20 µM; in [4], 96 µM.

Turning to `CCC(C)(C)C(=O)O[C@H]1C[C@@H](C)C=C2C=C[C@H](C)[C@H](CC[C@@H]3C[C@@H](O)CC(=O)O3)[C@H]21` [SIMVASTATIN], the inhibition in vivo at 56 µmol/kg in assay [1] was determined as 75%; in [2] it was 70%; in [5] it was 0%.

As usually defined, the inhibition in vivo is the drop in the measured response relative to a control, in per cent. A word on the IC50: it is the point on the concentration scale where inhibition reaches its midpoint. The term inhibition denotes the drop in the measured response relative to a control, in per cent.
